Consider one compound from PubChem BioAssay (NCI).

Values joined by “and” are separate entries in the source; they are usually repeats but may differ in a detail not shown here. Identical values can stand only once.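 Grown in 96-well plates, cells were treated for 48 hours with each compound at five concentrations. Insufficient inhibition: endpoint recorded as highest concentration tested. Here, GI50 denotes the concentration required for 50% inhibition of growth. The concentration for full growth arrest is given as TGI.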

Experiment [1] deals with SN12K1 renal. Put plainly: NCI tumour cell line growth inhibition, 48 h.
The test system of experiment [2] is P388/ADR leukemia. Put plainly: NCI tumour cell line growth inhibition, 48 h.

As to `CSC1SCC2C(=O)N(C)C(C(C)C)C(=O)OCC(NC(=O)c3cnc4ccccc4n3)C(=O)NC(C)C(=O)N(C)C1C(=O)N(C)C(C(C)C)C(=O)OCC(NC(=O)c1cnc3ccccc3n1)C(=O)NC(C)C(=O)N2C` (centres undefined), in experiment [1], the GI50 is 0.000567 µM; the TGI is 0.0248 µM and 0.0801 µM. Besides, in experiment [2], the GI50 was 0.0075 µM; the TGI was 0.049 µM and 0.0348 µM.
